According to patent publication US20150252049A1, “MGLU2/3 ANTAGONISTS FOR THE TREATMENT OF AUTISTIC DISORDERS” (Hoffmann-La Roche Inc., priority 2012, published 2015):

Tested on: BTBR T+tf/J (BTBR) mice
Test: 3-Chambered Social Test (animal vs. object)
Type: in vivo, mouse
Conditions: male BTBR-T+/tfj mice, 3-10-30 mg/kg p.o. 3 hours before habituation; effect especially in the first 5 minutes at 10 mg/kg (FIG. 2/3)
Description: Deficits in social interactions and social approach, unusual patterns of ultrasonic vocalization, and high levels of repetitive self-grooming are included.^20
The 3-Chambered Social Test is used to assess autistic-like behaviors. Shortly after a period of habituation a mouse's sociability is determined by evaluating the amount of time the test mouse spends approaching a wire cage (holding cup) containing an unfamiliar mouse.
48 male mice BTBR-T+/tfj, 8-9 weeks old, were used in the experiments described herein in 4 groups n=12/group. Further, 6 male stimulus mice (unfamiliar BTBR T+tf/J mice) of similar age and weight were used.
Low light of 20 Lux was used. With the doorways into the two side chambers closed, the test mouse was placed in the middle chamber and allowed to explore the apparatus for 10 min. Thereafter, the doorways were opened and the test mouse was allowed to explore the entire test box for 10 min. The cages were empty. The sociability test was conducted immediately following the habituation phase.
While the test mouse was enclosed in the center compartment of the test box a stimulus mouse was enclosed in a wire cage (holding cup) in one side chamber. […] The amount of time spent and the number of entries into each chamber was measured, as was the time spent in a small perimeter around the cup holding the stimulus mouse. […]

**Q.** Which “social preference (duration in the chamber, duration sniffing)” value does the source give for `CCC(=O)NS(=O)(=O)c1cccc(-c2cccc(-c3cc(-c4ccc(C(F)(F)F)cc4)cc(C)n3)n2)c1` [IIb] here?
**A.** The value was “increased social preference”.
